Results: publication PMC9551036, “A selective and orally bioavailable VHL-recruiting PROTAC achieves SMARCA2 degradation in vivo” (Nature Communications, 2022)
Several values for one entry are separate records, joined by “and”; a condition that tells them apart may be missing. Identical values can stand only once. Like-named read-outs stand apart in the source and are kept apart here.

Columns and labels:
SMARCA2^BD = molecular target: T1, SMARCA2^BD (Homo sapiens, UniProt P51531); test: SPR binding to immobilised SMARCA2 bromodomain
T1 construct: P51531-2, residues 1373-1493 with additional N-terminal SM residues; GST (TEV site) (N, cleaved yes); made in house; host or cells: Escherichia coli BL21(DE3)
Method: (§1) SMARCA4^BD was provided by the Structural Genomics Consortium (SGC), Toronto[32] and SMARCA2^BD and PRM1^BD5 were synthesised by GeneArt then subcloned into pDEST15 vectors (Invitrogen). The VCB complex was expressed and purified as described previously, with the modification that 0.3 mM IPTG was used for induction of expression. […] Both were stored in 20 mM 4-(2-hydroxyethyl)−1-piperazineethanesulfonic acid (HEPES), 150 mM sodium chloride and 1 mM tris(2-carboxyethyl)phosphine (TCEP) pH 7.5. SMARCA2^BD, SMARCA4^BD and PBRM1^BD5 were expressed in Escherichia coli BL21(DE3) as N-terminal GST fusion proteins with a TEV protease cleavage site. Expression and purification of these proteins has been described previously[32],[33]. Starter cultures were grown overnight at 37 °C in 10 mL of Luria-Bertani (LB) medium with ampicillin (100 μg/mL). The starter cultures were diluted (1:100) in Terrific Broth (TB) medium with ampicillin (100 μg/mL) and grown in a shaking incubator at 37 °C to an optical density (OD600) ~1 before the temperature was lowered for induction (to 23 °C for SMARCA2^BD or 18 °C for SMARCA4^BD and PRRM1^BD5). […] Cells were harvested by centrifugation and stored at −80 °C prior to purification. […] The Lysis buffers were as follows: for SMARCA2^BD: 50 mM HEPES, 500 mM sodium chloride, 5% glycerol, 5 mM dithiothreitol (DTT); for SMARCA4^BD: 25 mM HEPES, 0.3 M sodium chloride, 5% glycerol, 10 mM DTT, pH 7.5; for PBRM1^BD5: 25 mM HEPES, 300 mM sodium chloride, 5% glycerol, 10 mM DTT, pH 7.8; in each case supplemented with complete protease inhibitors (Roche). Affinity purification was performed using Glutathione Sepharose 4B (GE Healthcare) in batch mode or on-column. […] For SMARCA2^BD, prior to TEV protease cleavage the eluted GST-tagged BD was first dialysed into desalting buffer (20 mM HEPES, 250 mM sodium chloride, pH 7.0 + 0.5% glycerol). Where TEV cleavage was performed in solution, a second affinity (GST-trap) column purification step was carried out to remove the GST-tag and uncleaved GST-tagged protein. Proteins were further purified by SEC (HiLoad Superdex-75, 16/600) (GE Healthcare) and stored in Storage buffer (for SMARCA2^BD: 20 mM HEPES, 150 mM sodium chloride, pH 7.5; for SMARCA4^BD: 10 mM HEPES, 0.5 M NaCl, 5% glycerol, pH 7.5; for PBRM1^BD5: 20 mM HEPES, 300 mM NaCl, 5 mM DTT, pH 7.8). For AlphaScreen assays, eluted GST-tagged BDs were purified directly by SEC in the respective storage buffers without TEV cleavage. All chromatography purification steps were performed either at room temperature or 4 °C using an ÄKTA FPLC purification system (GE Healthcare) or a plastic Econo-Pac column (Bio-Rad).
(§2) SPR data were acquired on Biacore 8K or T200 instruments (Cytiva). Target proteins were immobilised at 25 °C on CM5 chips by amine coupling (EDC/NHS, Cytiva) in HBS-P+ running buffer (pH 7.4), containing 2 mM TCEP. […] The reference surface was subsequently deactivated using 1 M ethanolamine. […] Biotinylated VCB was prepared as previously described[27]: in brief, the complex was mixed 1:1 with EZ-Link NHS–PEG4–biotin (Thermo Scientific) and incubated at room temperature for 1 h. Unreacted NHS-biotin was removed using a PD-10 desalting column (Cytiva) into 20 mM HEPES, pH 7.5, 150 mM sodium chloride and 1 mM DTT. The reference surface was generated by deactivating the EDC/NHS-treated surface with 1 M ethanolamine. All interaction experiments were done at 6 °C in running buffer (20 mM TRIS, pH 8.3, 150 mM potassium chloride, 2 mM magnesium chloride, 2 mM TCEP, 0.005% TWEEN 20, 1% dimethyl sulfoxide). For ternary complex measurements, a sensor chip surface with VCB immobilised was used (preparation as described above). Experiments were run in dual-inject mode with 10 µM SMARCA present during the injection and dissociation phase. Sensorgrams from reference surfaces and blank injections were subtracted from the raw data prior to data analysis using Biacore Insight software.

[1] = Bidirectional permeability measurement in Caco-2 cells; type: in vitro ADME; conditions: human; for Papp B→A at 1 µM: Caco-2, pH 7.4, Caco-2, b to a, read-out: Caco-2 Pba; for efflux ratio at 2 h, 1 µM: read-out: Caco-2 Efflux ratio
How it was run: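 Caco-2 monolayers grown 14–21 days, preincubated 24 h with medium containing 1 µM compound; bidirectional transport sampled up to 2 h, quantified by LC-MS/MS, ± 5 µM zosuquidar (P-gp inhibitor). Papp,AB and Papp,BA from receiver amount, donor C0, area and time; efflux ratio = Papp,BA/Papp,AB (duplicate means). TEER checked per plate.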

VCB complex = molecular target: T2, VCB complex (Homo sapiens, UniProt P40337); test: SPR binary binding to immobilised VCB complex
T2 construct: His6 (TEV site) (N, cleaved yes); made in house
Method: as §1, §2

[2] = tested on: VCB: PROTAC: SMARCA4^BD ternary complex; test: TR-FRET ternary complex affinity and cooperativity, SMARCA4; type: binding, human; conditions: ratio TR-FRET EC50 / TR-FRET EC50 +VCB measured in the same run, SMARCA4BD
[3] = SPR, SMARCA2BD, mean ± SD, read-out: SMARCA2 KD
[4] = SPR, individual replicates, read-out: SMARCA2 KD
[5] = Caco-2, pH 7.4, Caco-2, read-out: Caco-2 Pab
[6] = binary binding to VCB, mean ± SD

T2 sequence (P40337 54-213): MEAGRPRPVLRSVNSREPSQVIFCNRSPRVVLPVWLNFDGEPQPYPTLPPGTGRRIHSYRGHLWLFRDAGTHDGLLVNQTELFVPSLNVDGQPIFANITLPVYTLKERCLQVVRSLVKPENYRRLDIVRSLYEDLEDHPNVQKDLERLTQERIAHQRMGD
T2 sequence (Q15369 17-112 partner limits assumed): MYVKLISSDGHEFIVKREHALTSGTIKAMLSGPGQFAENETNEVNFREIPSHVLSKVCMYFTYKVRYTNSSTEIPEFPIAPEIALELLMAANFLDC
T2 sequence (Q15370 1-104 partner limits assumed): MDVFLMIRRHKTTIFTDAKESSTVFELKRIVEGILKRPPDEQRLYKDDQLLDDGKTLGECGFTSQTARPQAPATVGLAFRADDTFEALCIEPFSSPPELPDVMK
T1 sequence (P51531 1373-1493 isoform P51531-2): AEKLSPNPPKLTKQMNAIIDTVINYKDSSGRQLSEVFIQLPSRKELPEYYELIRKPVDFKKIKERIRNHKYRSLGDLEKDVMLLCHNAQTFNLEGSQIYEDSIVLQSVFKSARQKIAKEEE

| Compound | koff (SMARCA2^BD) [s⁻¹] | kon (SMARCA2^BD) [M⁻¹ s⁻¹] | Kd (SMARCA2^BD; [3]) [nM] | Kd (SMARCA2^BD; [4]) | Kd (SMARCA2^BD; read-out: SMARCA2^BD SPR KD) [nM] | Papp B→A at 1 µM [1] [×10⁻⁶ cm/s] | efflux ratio at 2 h, 1 µM ([1]; Caco-2, pH 7.4, Caco-2) | Papp A→B at 1 µM [1, 5] [×10⁻⁶ cm/s] | Kd (VCB complex; [6]) [nM] | Kd (VCB complex; binary, individual replicates) | cooperativity α (SMARCA4BD) [2] | Papp A→B at 1 µM ([1]; Caco-2, pH 7.4, Caco-2, a to b, read-out: Caco-2 Pab) [×10⁻⁶ cm/s] | Papp A→B at 1 µM ([1]; Caco-2, pH 7.4, Modified Caco-2, read-out: Modified Caco-2 Pab) [×10⁻⁶ cm/s] |
| --- | --- | --- | --- | --- | --- | --- | --- | --- | --- | --- | --- | --- | --- |
| CN1CCC(c2ccc3c(c2)n(C2CCCC2)c2nc(=O)c4c(Br)cccc4n32)CC1 [compound 3] | 0.09 ± 0.01 | 1.98e+06 ± 130000 | 46 ± 5 | 72.2 nM and 83 nM and 78.7 nM and 50.7 nM and 44.6 nM and 41.5 nM | 46 | 21.7 | 0.768 | 28 |  |  |  |  |  |
| Cc1ncsc1-c1ccc([C@H](CC[C@H](C)CCN2CCC(c3ccc4c(c3)n(C3CCCC3)c3nc(=O)c5c(Br)cccc5n43)CC2)NC(=O)[C@@H]2C[C@H](O)CN2C(=O)[C@@H](NC(=O)C2(F)CC2)C(C)(C)C)cc1 [compound 12] |  |  | 214 ± 15 | 202 nM and 231 nM and 209 nM |  | 8.5 |  |  | 629 ± 88 | 566 nM and 691 nM | 0.9 ± 0.1 | 3.4 |  |
| Cc1ncsc1-c1ccc(CNC(=O)[C@@H]2C[C@@H](O)CN2C(=O)[C@@H](NC(=O)C2(F)CC2)C(C)(C)C)c(OCCOCCOCCOCCN2CCC(c3ccc4c(c3)n(C3CCCC3)c3nc(=O)c5c(Br)cccc5n43)CC2)c1 [compound 22] |  |  | 1100 ± 433 | 1570 nM and 715 nM and 1020 nM |  |  |  |  | 39 ± 16 | 31.8 nM and 62.9 nM and 29.3 nM and 33 nM | 9.1 ± 0.7 |  |  |
| Cc1ncsc1-c1ccc([C@H](CC[C@@H](C)CCN2CCC(c3ccc4c(c3)n(C3CCCC3)c3nc(=O)c5c(Br)cccc5n43)CC2)NC(=O)[C@@H]2C[C@@H](O)CN2C(=O)[C@@H](NC(=O)C2(F)CC2)C(C)(C)C)cc1 [compound 29] |  |  | 255 ± 42 | 304 nM and 227 nM and 235 nM |  |  |  |  | 13 ± 7 | 21.3 nM and 18.2 nM and 7.09 nM and 8.27 nM and 5.72 nM and 14.8 nM | 7.0 ± 1.3 |  |  |
| Cc1ncsc1-c1ccc(C(CCC(C)CCN2CCC(c3ccc4c(c3)n(C3CCCC3)c3nc(=O)c5c(Br)cccc5n43)CC2)NC(=O)C2CC(O)CN2C(=O)C(NC(=O)C2(F)CC2)C(C)(C)C)cc1 (stereo not shown) [ACBI2] |  |  | 208 ± 39 | 250 nM and 202 nM and 173 nM |  |  |  | 2 ± 0.2 | 28 ± 35 |  | 3.7 ± 0.8 |  | 9 ± 9 |
| CN1CCN(c2nc(=O)c3c(Cl)cccc3o2)CC1 [compound 13] |  |  | 24500 ± 2170 | 26500 nM and 24900 nM and 22200 nM |  |  |  |  |  |  |  |  |  |
| Cc1ncsc1-c1ccc(CNC(=O)[C@@H]2C[C@@H](O)CN2C(=O)[C@@H](NC(=O)C2(F)CC2)C(C)(C)C)c(OCCCCN2CCC(c3ccc4c(c3)n(C3CCCC3)c3nc(=O)c5c(Br)cccc5n43)CC2)c1 [compound 23] |  |  | 94 ± 11 | 102 nM and 81.3 nM and 98.3 nM |  |  |  |  | 16 ± 8 | 11.5 nM and 28.1 nM and 12.3 nM and 10.9 nM | 0.9 ± 0.1 |  |  |
| Cc1ncsc1-c1ccc([C@H](CCCCN2CCC(c3ccc4c(c3)n(C3CCCC3)c3nc(=O)c5c(Br)cccc5n43)CC2)NC(=O)[C@@H]2C[C@@H](O)CN2C(=O)[C@@H](NC(=O)C2(F)CC2)C(C)(C)C)cc1 [compound 25] |  |  | 93 ± 3 | 95.4 nM and 90.4 nM and 94 nM |  |  |  |  | 6 ± 1 | 6.94 nM and 6.43 nM and 5.3 nM | 2.3 ± 0.4 |  |  |
| Nc1cccc2c1c(=O)nc1n(C3CCCC3)c3ccccc3n21 [compound 2] |  |  | 1160 ± 421 | 826 nM and 632 nM and 916 nM and 1490 nM and 1420 nM and 1670 nM | 1160 | 17 | 0.459 | 37 |  |  |  |  |  |
| Cc1ncsc1-c1ccc(CNC(=O)[C@@H]2C[C@H](O)CN2C(=O)[C@@H](NC(=O)C2(F)CC2)C(C)(C)C)c(OCCN2CCC(c3ccc4c(c3)n(C3CCCC3)c3nc(=O)c5c(Br)cccc5n43)CC2)c1 [compound 19] |  |  | 64 ± 4 | 68.8 nM and 62.9 nM and 60.9 nM |  |  |  |  |  |  | 0.9 ± 0.1 |  |  |
